Source: PMC11986975, “A Cdk5 inhibitor restores cognitive function and alleviates type 2 diabetes in mice” (iScience, 2025)

How the values were obtained:
[1] = tested on: Cdk9/CylT; assay: Specificity kinase assay, Cdk9 with cyclin T; assay type: biochemical; conditions: inhibitor 0-100 nM
From the text: To assess the specificity of inhibitors BLINK11 and BLINK15 against CDK5, we investigated their effects on different Cdks, i.e., Cdk1, Cdk2, and Cdk9 that share structural homology with CDK5. […] However, these IC50 values were higher than those observed for CDK5/p35 and CDK5/p25. […] Overall, BLINK11 and BLINK15 can selectively target CDK5 at lower concentrations.
ligands are illustrated with red lines. The RMSD plots for the interactions of BLINK11 and
Figure S3: BBB Permeability assay and Evaluation of non-specific kinase inhibition by
BLINK11 and BLINK15 (A-B) PAMPA assay results of BLINK11 and BLINK15 compound.
IC50 of all the kinases for both BLINK11 and BLINK15 inhibitors.
(1 picture or pasted object on this page, not shown here)

[2] = MTT cell toxicity assay in N2A cells; assay type: cell-based; conditions: mouse, N2A (Neuro2A) cells, all doses (25 to 100 μM)
Procedure: HEK293T, HepG2, and N2A cells were used in the study representing kidney, liver and neuronal cell lines respectively. The cells were cultured in DMEM supplemented with 10% fetal bovine serum and antibiotics at 37°C under 5% CO2. The cells were tested negative for mycoplasma.
To evaluate the compound toxicity for the Cdk5 inhibitors, an MTT assay was performed in HEK293T, HepG2, and N2A cells at varying concentrations. Six hours after cell seeding, the compounds were added in different amounts, and the cells were harvested after 24 h for further analysis. N2A cells were transfected using Lipofectamine-3000 reagent, co-transfecting with plasmids encoding Cdk5/p35 and Cdk5/p25 for 12 h, followed by inhibitor treatment to assess their effects in the cell culture system. The concentrations of each plasmids used was 1 μg, total of 3 μg per well for 6 well plates.

[3] = LC-MS of brain lysate and serum after intraperitoneal injection in HFD mouse model; assay type: in vivo; conditions: C57BL/6J, ip, HFD mice, LC-MS peak area in brain lysate compared to serum
Procedure: To assess the BBB penetrability of BLINK11 and BLINK15 in the high-fat diet (HFD) mouse model, intraperitoneal injections were administered, and liquid chromatography-mass spectrometry (LC-MS) analysis was conducted on both brain lysate and serum samples (Figure 3). The LC-MS results depicted in Figures 3A and 3B showcase the peaks corresponding to the BLINK11 compound in the brain lysate and serum, respectively. Similarly, Figures 3C and 3D illustrate the peaks associated with the BLINK15 compound in the brain lysate and serum, respectively. […] These analyses provide a quantitative measure of the presence of the compounds in the respective samples. Furthermore, to ascertain the relative distribution of BLINK11 and BLINK15 in the brain compared to serum, the percentages of each compound present in the brain were calculated and plotted in a bar graph (Figure 3G). […]
Metabolites, comprising the entire spectrum within the lysate excluding proteins but inclusive of drugs, were extracted from plasma and brain tissue homogenate samples. […] Compounds were analyzed in these samples using a multiple reaction monitoring method (using parameters mentioned in Table S5) on a triple quadrupole hybrid ion trap mass spectrometer (QTRAP 6500+, SCIEX) coupled with an ExionLC UHPLC system (SCIEX). […] Relative quantification was performed using MultiQuantTM software v.3.0 (SCIEX). […]

[4] = tested on: HFD-fed mice; assay: Glucose tolerance test (GTT) in HFD mice; assay type: in vivo; conditions: i.p., both dosages 20 and 40 mg/kg/day, 20 days
Procedure: (§1) For the glucose tolerance test, 2 g/kg of glucose was utilized, and 0.75U/kg of human insulin was employed The glucose tolerance test (GTT) and insulin tolerance test (ITT) were performed in HFD mice models after 20 weeks of HFD feeding followed by 20 days of drug administration.[48] For GTT the mice were kept in a fasting period for overnight before glucose injections of 2 g/kg intraperitoneally. For ITT the mice were kept in a fasting for 6 h prior to insulin injection of 0.75 U/kg intraperitoneally. A one-touch glucometer was used to assess the blood sugar levels at various intervals (0, 60, and 120 min) following intraperitoneal infusion of both glucose and insulin.[23]^,[49]^,[50]^,[51] After 20 weeks of a HFD and 20 days of drug administration, the tests were carried out.

[5] = tested on: HFD-fed mice; assay: Insulin tolerance test (ITT) in HFD mice; assay type: in vivo; conditions: i.p., both dosages 20 and 40 mg/kg/day, 20 days
Procedure: as §1

[6] = tested on: neurodegenerative markers in hippocampus; assay: Western blot of hippocampal proteins (Cdk5, p35/p25, NF-H, p-NF-H, NF-L, tau, p-tau) in treated HFD mice; assay type: in vivo; conditions: i.p.
Procedure: For tissue lysate preparation the mice were sacrificed following the Institution’s ethical guidelines. The hippocampus was isolated from the rest of the brain and treated in a tissue lysis solution with a protease and phosphatase inhibitor cocktail. Western blotting was performed to study the expression patterns of the protein of interest. Each well of a polyacrylamide gel was loaded with an identical amount of protein lysate (40–50 μg), which was then transferred to the nitrocellulose membrane. In 1X PBS with 0.1% (v/v) Tween 20, the main antibodies were diluted.

| SMILES | Inhibition of Cdk9 (with cyclin T) [1] | viability at 24 h [2] [%] | Kp [3] | Glucose tolerance test (GTT) [4] | Insulin tolerance test (ITT) [5] | Hippocampal expression levels of CDK5 ([6]; 20 days) | neurofilament light chain (NF-L) levels in hippocampus ([6]; 20 days) | p25 generation in hippocampus ([6]; 20 days) | phospho-tau-396Ser levels in hippocampus ([6]; 20 days) | phospho-NF-H levels in hippocampus ([6]; particularly at a higher dose) |
| --- | --- | --- | --- | --- | --- | --- | --- | --- | --- | --- |
| O=C(COc1ccccc1C(=O)Nc1cccc(Cl)c1Cl)Nc1ccc(N2CCOCC2)c(Cl)c1 [BLINK11, 2-(2-((3-chloro-4-morpholinophenyl)amino)-2-oxoethoxy)-N-(2,3-dichlorophenyl)benzamide] | minimal inhibition | > 50 | 0.38 | significant rescue | significant rescue | remain unaltered | restored | remains unchanged | significantly decreased | significantly reduced |
| COc1ccc(C(=O)C[C@@]2(O)C(=O)N(Cc3ccccc3)c3ccc(Br)cc32)cc1[N+](=O)[O-] [BLINK15] | minimal inhibition | > 50 | 0.11 | significant rescue | significant rescue | remain unaltered |  | remains unchanged |  |  |
